We go through one compound from patent publication US5744462A, “Steroids useful as anti-cancer and anti-obesity agents” (Research Corporation Technologies, Inc., priority 1995, dated 1998).

Series [1] in a line: Estrogenic and anti-estrogenic activity, uterine weight. The series is classed as in vivo, rat (female CD). To be noted: 60 mg/kg s.c. for 3 days, DHEA significantly greater than control. As to the method: Estrogenic and Anti-Estrogenic Activity
Female CD rats, 26-27 days old, were injected subcutaneously for 3 days with one of the compounds of the present invention at 60 mg/kg in propylene glycol. Controls received propylene glycol alone. On the 4th day, the rats were killed and the uteri were dissected out and weighed.

Series [2] has as its system mouse epidermis (TPA stimulated 3H-thymidine incorporation). Nature of the series: TPA stimulation of 3H-thymidine incorporation in mouse epidermis, oral steroid. Type of series: in vivo, mouse (male ICR). The procedure: (§1) Tumor promoters, such as TPA, stimulate hyperplasia and DNA synthesis when applied to the skin, and it is believed that this stimulation is an important step in the enhancement of tumorigenesis.
Male ICR mice were orally intubated with steroid suspended in sesame oil (0.5 ml/mouse) at the indicated dose. Mice not receiving steroid were given sesame oil alone. One hour later mice received topical application of TPA and 20 hours later the rate of ^3 H-thymidine incorporation into the epidermis was determined as described in Pashko, L. L., Schwartz, A. G., Abou-Gharbia, M., and Swern, D. (1981), Inhibition of DNA synthesis in mouse epidermis and breast epithelium by dehydroepiandrosterone and related steroids, Carcinogenesis, 2,-717-721.
Experimental conditions are the same as in Table 3.
(In general: Uptake of a labelled nucleoside into DNA is a usual measure of proliferation.)

Series [3] deals with mouse epidermal DNA (TPA stimulated 3H-thymidine incorporation). Briefly: TPA stimulation of 3H-thymidine incorporation in epidermis, topical steroid. The following applies: for SPECIFIC ACTIVITY, TPA stimulated 3H-thymidine incorporation: no steroid 66, TPA alone 174. The series is classed as in vivo, mouse (A/J). As to the method: as §1
Incorporation of ^3 H-thymidine into A/J mouse epidermal DNA was determined as described in Pashko, L. L., Schwartz, A. G., Abou-Gharbia, M. and Swern, D. (1981), Inhibition of DNA synthesis in mouse epidermis and breast epithelium by dehydroepiandrosterone and related steroids, Carcinogenesis, 2, 717-721. Values are mean±SD for 3 separately treated mice in each group 20 hours after TPA application. DHEA or testosterone was added topically in 0.2 ml acetone one hour before TPA addition.

Series [4] in a line: Anti-weight effect in mice, general statements. The series is classed as in vivo, mouse. The source says: (Table 9 vs Table 5 and Table 6). […] Thus the cancer preventive the cancer preventive effect of DHEA may result indirectly from its anti-weight action rather than from a direct effect of DHEA or target cells.
The conditions of series [5]: DMBA-initiated and TPA-promoted; cited from earlier work.
The conditions of series [6]: daily approximately 400 mg/kg, long-term; cited from earlier work.
The next series has as its system mouse epidermis. The following applies: cited from earlier work.

As for `C[C@]12CC[C@H](O)CC1=CC[C@@H]1[C@@H]2CC[C@]2(C)C(=O)CC[C@@H]12` [DHEA, Dehydroepiandrosterone], the “Mean Uterine Weight ± S.D.” value in series [1] (control 2.02 ± 0.28, p < .001) is reported as 4.17 ± 0.48 mg/100 gm body weight. Besides, the “Mean Uterine Weigh ± S.D.” value in series [1] (Table 2a, control 1.95 ± 0.22, p < 0.001) turned out to be 3.93 ± 0.71. Moreover, the “SPECIFIC ACTIVITY, TPA stimulated 3H-thymidine incorporation” value in series [2] (Table 9, oral 400 mg/kg, no steroid 55.1, TPA alone 118) is given as 50.9 ± 3.2 cpm/ug DNA; in series [3] (topical 100 ug) it was 52 ± 5.8 cpm/ug DNA; in series [3] (topical 400 ug), 22 ± 6.5 cpm/ug DNA. Also, the “effect on TPA stimulation in 3H-thymidine incorporation” value in series [2] (oral, mice, doses well below 400 mg/kg, comparable to food restriction) was “inactive”. Moreover, the “effect on TPA stimulation of 3H-thymidine incorporation” value is reported as “does not inhibit the TPA stimulation in epidermal ^3 H-thymidine incorporation to a degree comparable” in series [2] (single administration, 400 mg/kg, mice, compared with food restriction or topical 400 ug DHEA) and “abolishes this stimulation” in series [3] (topical, in words (Table 5)). In addition, the anti-weight effect result in series [4] (approximately 400 mg/kg daily, repeatedly over a few weeks) is listed as “produces an anti-weight effect”. The “effect on weight: cause of the anti-weight effect” value in series [4] (four weeks, 400 mg/kg) is “due to both a reduction in food intake and to a decrease in the efficiency of food utilization”. Also, in series [5], the skin papilloma formation result was “inhibit”. Further, the “development of breast, lung, and colon tumors” value in series [6] was “inhibit the development of breast, lung, and colon tumors”. Moreover, the “capacity of TPA to stimulate 3H-thymidine incorporation” value with mouse epidermis is given as “antagonizes”.
